Key:
P-gp [1] = biological target: T1, P-gp (Homo sapiens, UniProt P08183); test: ATP cell depletion (ATPlite assay) in MDCK-MDR1 cells; type: cell-based; conditions: Yes/No
T1 construct: expressed in transfected cells; host or cells: MDCK-MDR1 (Madin-Darby Canine Kidney cells, gift of Prof. P. Borst, NKI-AVL)
Method: The MDCK-MDR1 cells were seeded into 96-well microplate in 100 µL of complete medium at a density 20,000 cells per well. The plate was incubated overnight (O/N) in a humidified atmosphere 5% CO2 at 37 °C. The medium was removed and 100 µL of complete medium either alone or containing different concentrations (ranging from 1 to 100 µM) of test compounds was added. The plate was incubated for 2 h in a humidified 5% CO2 atmosphere at 37 °C. 50 µL of mammalian cell lysis solution was added to all wells and the plate shacked for five minutes in an orbital shaker. 50 µL of substrate solution was added to all wells and the plate shacked for five minutes in an orbital shaker. The plate was dark adapted for ten minutes and the luminescence was measured.
(§1) The interaction potency between the designed compounds and P-gp was evaluated by measuring the transport inhibition of the pro-fluorescent probe Calcein-AM, that is a P-gp substrate, in a cell line overexpressing P-gp (MDCK-MDR1)[47]. The P-gp interacting profile was further investigated with two other assays: the Apparent Permeability (Papp) determination (BA/AB) in Caco-2 cell monolayer[48]^,[49], and the ATP cell depletion in the MDCK-MDR1 cell line[50]. Taking into account the results of the combined tests, an interacting compound can be classified as substrate or inhibitor. Papp determination measures the ratio between two fluxes: from the basolateral to apical compartments (BA, representative of passive diffusion) and from the apical to basolateral compartments (AB, representative of active transport). […] In the same manner, if (BA/AB) >2, the compound should probably be classified as a substrate. […] The selectivity of ligands 1–26 was evaluated by detecting their activity towards the other ABC transporters MRP1 and BCRP, by measuring the inhibition of the efflux of Calcein-AM (i.e., also a MRP1 substrate) in cells overexpressing MRP1 (MDCK-MRP1 cells), and the inhibition of the efflux of the fluorescent probe Hoechst 33342 (i.e. a BCRP substrate) in cells overexpressing BCRP (MDCK-BCRP cells), respectively.

[2] = Stability test in human plasma (LC-MS/MS); type: in vitro ADME; conditions: human plasma; for half-life at 1 µM: human, 37 °C
Method: Each sample was prepared adding 10 µL of working solution 1 to 100 µL of tested matrix (PBS or human plasma) in micro centrifuge tubes. The obtained solutions correspond to 1 µM of analyte.
After the incubation, the samples were added with 300 µL of ISTD solution and centrifuged (room temperature for 5 min at 10,000 rpm). The supernatants were transferred in auto sampler vials and dried under a gentle stream of nitrogen.
The dried samples were dissolved in 1.0 ml of 10 mM of formic acid in mQ water: acetonitrile 80:20 solution. The obtained sample solutions were analysed by LC-MS/MS methods described in Supplementary material.
For this purpose, a series of experiments were carried out, adding a known amount of analyte in both phosphate buffer solution (PBS) and in human plasma. The samples were analysed by LC-MS/MS method operating in Multiple Reaction Monitoring (MRM) mode[55].
The analyte concentration (1 µM) used during the stability tests is generally smaller than the corresponding Michaelis–Menten constant (KM); therefore, the enzymatic degradation rate is described by a first-order kinetic. Then, by plotting the natural logarithm of the quantitative data versus the incubation time, a linear function can be used and its slope represents the degradation rate (k).

[3] = Apparent permeability (Papp) determination (BA/AB) in Caco-2 cell monolayer; type: in vitro ADME; conditions: human, Caco-2 monolayer
Method: Caco-2 cells were seeded onto a Millicell® assay system (Millipore), where a cell monolayer is set in between a filter cell and a receiver plate, at a density of 10 000 cells/well[46]. The culture medium was replaced every 48 h and the cells kept for 21 days in culture. The Trans Epithelial Electrical Resistance (TEER) of the monolayers was measured daily, before and after the experiment, using an epithelial volt-ohmmeter (Millicell®-ERS). Generally, TEER values greater than 1000 Ω for a 21 days culture, are considered optimal.
After 21 days of Caco-2 cell growth, the medium was removed from filter wells and from the receiver plate, which were filled with fresh HBSS buffer (Invitrogen). This procedure was repeated twice, and the plates were incubated at 37 °C for 30 min. After incubation time, the HBSS buffer was removed and drug solutions and reference compounds were added to the filter well at the concentration of 100 µM, while fresh HBSS was added to the receiver plate. The plates were incubated at 37 °C for 120 min. Afterwards, samples were removed from the apical (filter well) and basolateral (receiver plate) side of the monolayer to measure the permeability.
as §1

P-gp [4] = biological target: T1, P-gp; test: Inhibition of Calcein-AM transport in MDCK-MDR1 cells; type: cell-based; conditions: Calcein-AM, MDCK-MDR1 cells; mean ± SEM of two experiments
Method: These experiments were carried out as previously described by Teodori et al. with minor modifications. Each cell line (30 000 cells per well) was seeded into black CulturePlate 96/wells plate with 100 µL medium and allowed to become confluent overnight. 100 µL of test compounds were solubilised in culture medium and added to monolayers, with final concentrations ranging from 1 nM to 100 µM. 96/Wells plate was incubated for 30 min in a humidified atmosphere 5% CO2 at 37 °C. Calcein-AM was added in 100 µL of Phosphate Buffered Saline (PBS) to yield a final concentration of 2.5 µM and plate was incubated for 30 min in a humidified atmosphere 5% CO2 at 37 °C. Each well was washed 3 times with ice cold PBS. Saline buffer was added to each well and the plate was read with Victor3 (PerkinElmer) at excitation and emission wavelengths of 485 and 535 nm, respectively. In these experimental conditions, Calcein cell accumulation in the absence and in the presence of tested compounds was evaluated and fluorescence basal level was estimated with untreated cells. In treated wells the increase of fluorescence with respect to basal level was measured. EC50 values were determined by fitting the fluorescence increase percentage versus log[dose].
The interaction potency between the designed compounds and P-gp was evaluated by measuring the transport inhibition of the pro-fluorescent probe Calcein-AM, that is a P-gp substrate, in a cell line overexpressing P-gp (MDCK-MDR1)[47]. The P-gp interacting profile was further investigated with two other assays: the Apparent Permeability (Papp) determination (BA/AB) in Caco-2 cell monolayer[48]^,[49], and the ATP cell depletion in the MDCK-MDR1 cell line[50]. […] Papp determination measures the ratio between two fluxes: from the basolateral to apical compartments (BA, representative of passive diffusion) and from the apical to basolateral compartments (AB, representative of active transport). […] In the same manner, if (BA/AB) >2, the compound should probably be classified as a substrate.

T1 sequence (P08183 whole entry): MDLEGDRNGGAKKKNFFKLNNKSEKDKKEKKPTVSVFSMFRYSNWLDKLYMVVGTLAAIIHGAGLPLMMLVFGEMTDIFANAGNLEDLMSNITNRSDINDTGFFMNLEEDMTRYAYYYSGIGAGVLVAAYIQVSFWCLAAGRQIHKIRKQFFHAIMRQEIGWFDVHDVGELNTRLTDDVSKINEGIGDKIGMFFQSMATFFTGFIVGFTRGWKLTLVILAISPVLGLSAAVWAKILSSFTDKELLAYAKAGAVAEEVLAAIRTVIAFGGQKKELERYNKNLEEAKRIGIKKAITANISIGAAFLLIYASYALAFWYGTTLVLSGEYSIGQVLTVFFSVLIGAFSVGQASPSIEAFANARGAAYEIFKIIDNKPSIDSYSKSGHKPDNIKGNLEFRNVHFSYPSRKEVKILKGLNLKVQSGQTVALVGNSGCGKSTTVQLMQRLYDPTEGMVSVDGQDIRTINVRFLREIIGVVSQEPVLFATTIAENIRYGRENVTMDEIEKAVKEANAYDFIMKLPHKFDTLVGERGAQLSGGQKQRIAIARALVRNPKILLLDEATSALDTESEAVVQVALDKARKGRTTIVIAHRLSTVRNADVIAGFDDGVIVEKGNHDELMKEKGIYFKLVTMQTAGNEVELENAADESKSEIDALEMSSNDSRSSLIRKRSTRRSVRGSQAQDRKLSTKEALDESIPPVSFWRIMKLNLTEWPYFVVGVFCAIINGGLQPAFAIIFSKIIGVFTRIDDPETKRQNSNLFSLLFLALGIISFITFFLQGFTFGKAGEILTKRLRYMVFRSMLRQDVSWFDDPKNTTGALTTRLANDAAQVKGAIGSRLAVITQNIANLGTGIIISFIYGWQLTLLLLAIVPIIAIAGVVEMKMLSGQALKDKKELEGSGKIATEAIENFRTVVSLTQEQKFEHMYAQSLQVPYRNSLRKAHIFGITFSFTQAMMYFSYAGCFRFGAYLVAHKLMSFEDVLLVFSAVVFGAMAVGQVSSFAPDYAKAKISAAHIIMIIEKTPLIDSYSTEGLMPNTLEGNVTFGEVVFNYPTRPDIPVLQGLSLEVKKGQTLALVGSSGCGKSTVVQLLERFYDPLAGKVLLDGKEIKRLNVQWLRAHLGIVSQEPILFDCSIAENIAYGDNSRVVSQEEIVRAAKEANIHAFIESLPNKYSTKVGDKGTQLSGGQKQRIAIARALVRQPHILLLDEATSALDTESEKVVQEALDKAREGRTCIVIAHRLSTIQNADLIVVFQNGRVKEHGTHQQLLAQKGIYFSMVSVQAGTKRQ

| ATP cell depletion (P-gp [1]) | half-life at 1 µM [2] [h] | efflux ratio at 120 min, 100 µM [3] | EC50 (P-gp [4]) [nM] | t1/2 ([2]; reference compound for enzymatic activity of the batch) [h] | SMILES |
| --- | --- | --- | --- | --- | --- |
| No | ≥ 4 | 5.9 | 440 ± 82 | – | COc1cc2c(cc1OC)CN(CCc1ccc(NC(=O)c3ccccc3OC)cc1)CC2 [Compound 2, N-(4–(2-(6,7-dimethoxy-3,4-dihydroisoquinolin-2(1H)-yl)ethyl)phenyl)-2-methoxybenzamide] |
| No | ≥ 4 | 5.5 | 7200 ± 1390 | – | COc1cc2c(cc1OC)CN(CCc1ccc(NC(=O)c3c(OC)cccc3OC)cc1)CC2 [Compound 4, N-(4–(2-(6,7-dimethoxy-3,4-dihydroisoquinolin-2(1H)-yl)ethyl)phenyl)-2,6-dimethoxybenzamide] |
| No | ≥ 4 | 3.6 | 670 ± 120 | – | COc1cc2c(cc1OC)CN(CCc1ccc(NC(=O)c3cccc4ccccc34)cc1)CC2 [Compound 6, N-(4–(2-(6,7-dimethoxy-3,4-dihydroisoquinolin-2(1H)-yl)ethyl)phenyl)-1-naphthamide] |
| No | ≥ 4 | 11.8 | 120 ± 22 | – | COc1cc2c(cc1OC)CN(CCc1ccc(NC(=O)c3c(OC)ccc4ccccc34)cc1)CC2 [Compound 7, N-(4–(2-(6,7-dimethoxy-3,4-dihydroisoquinolin-2(1H)-yl)ethyl)phenyl)-2-methoxy-1-naphthamide] |
| No | ≥ 4 | 7.3 | 6400 ± 1260 | – | COc1cc2c(cc1OC)CN(CCc1ccc(NC(=O)c3cccnc3)cc1)CC2 [Compound 9, N-(4–(2-(6,7-dimethoxy-3,4-dihydroisoquinolin-2(1H)-yl)ethyl)phenyl)nicotinamide] |
| No | ≥ 4 | 7.5 | 2300 ± 440 | – | COc1ccc(C(=O)Nc2ccc(CCN3CCc4cc(OC)c(OC)cc4C3)cc2)cn1 [Compound 10, N-(4–(2-(6,7-dimethoxy-3,4-dihydroisoquinolin-2(1H)-yl)ethyl)phenyl)-6-methoxynicotinamide] |
| No | ≥ 4 | 4.9 | 1900 ± 320 | – | COc1cc2c(cc1OC)CN(CCc1ccc(NC(=O)c3cnccn3)cc1)CC2 [Compound 11, N-(4–(2-(6,7-dimethoxy-3,4-dihydroisoquinolin-2(1H)-yl)ethyl)phenyl)pyrazine-2-carboxamide] |
| No | ≥ 4 | 6.5 | 660 ± 130 | – | COc1ccc2nccc(C(=O)Nc3ccc(CCN4CCc5cc(OC)c(OC)cc5C4)cc3)c2c1 [Compound 13, N-(4–(2-(6,7-dimethoxy-3,4-dihydroisoquinolin-2(1H)-yl)ethyl)phenyl)-6-methoxyquinoline-4-carboxamide] |
| No | ≥ 4 | 6.2 | 150 ± 30 | – | COc1cc2c(cc1OC)CN(CCc1ccc(OC(=O)c3c(OC)cccc3OC)cc1)CC2 [Compound 17, 4–(2-(6,7-Dimethoxy-3,4-dihydroisoquinolin-2(1H)-yl)ethyl)phenyl 2,6-dimethoxybenzoate] |
| No | ≥ 4 | 5 | 29400 ± 4980 | – | COc1cc2c(cc1OC)CN(CCc1ccc(OC(=O)c3cccnc3)cc1)CC2 [Compound 22, 4–(2-(6,7-Dimethoxy-3,4-dihydroisoquinolin-2(1H)-yl)ethyl)phenyl nicotinate] |
| No | ≥ 4 | 5.6 | 9240 ± 1810 | – | COc1ccc(C(=O)Oc2ccc(CCN3CCc4cc(OC)c(OC)cc4C3)cc2)cn1 [Compound 23, 4–(2-(6,7-Dimethoxy-3,4-dihydroisoquinolin-2(1H)-yl)ethyl)phenyl 6-methoxynicotinate] |
| No | 0.7 ± 0.333 | 4.9 | 1900 ± 320 | – | COc1cc2c(cc1OC)CN(CCc1ccc(OC(=O)c3cnccn3)cc1)CC2 [Compound 24, 4–(2-(6,7-Dimethoxy-3,4-dihydroisoquinolin-2(1H)-yl)ethyl)phenyl pyrazine-2-carboxylate] |
| No | 2.07 ± 0.45 | 8.7 | 1400 ± 260 | – | COc1ccc2nccc(C(=O)Oc3ccc(CCN4CCc5cc(OC)c(OC)cc5C4)cc3)c2c1 [Compound 26, 4–(2-(6,7-Dimethoxy-3,4-dihydroisoquinolin-2(1H)-yl)ethyl)phenyl 6-methoxyquinoline-4-carboxylate] |
| – | – | – | – | < 2 | CCOC(=O)C(C)c1cccc(C(=O)c2ccccc2)c1 (stereo not drawn) [KEE, Ketoprofen ethyl ester, reference compound] |
| Yes^g | – | – | – | – | COc1cc2c(cc1OC)CN(CCc1ccc(NC(=O)c3cccc4c(=O)c5cccc(OC)c5[nH]c34)cc1)CC2 [elacridar, reference compound] |

— article PMC7178819, “6,7-Dimethoxy-2-phenethyl-1,2,3,4-tetrahydroisoquinoline amides and corresponding ester isosteres as multidrug resistance reversers” (Journal of Enzyme Inhibition and Medicinal Chemistry, 2020)
